One compound from patent US20220306603A1, “TARGETING DNA REPAIR IN TUMOR CELLS VIA INHIBITION OF ERCC1-XPF” (The Governors of the University of Alberta, priority 2019, published 2022) can be followed below.

By logD is commonly meant lipophilicity at a set pH, counting ionised and neutral species.

“Also recorded” adds a separate entry of the source.

The nature of one data set: ADME screening: LogD. Particulars: Table 8.
The target in the next data set is T1, ERCC1-XPF complex (Homo sapiens, UniProt Q92889).
T1 construct: His6; made in house; host or cells: E. coli BL21 (DE3)
T1 sequence (Q92889 1-916): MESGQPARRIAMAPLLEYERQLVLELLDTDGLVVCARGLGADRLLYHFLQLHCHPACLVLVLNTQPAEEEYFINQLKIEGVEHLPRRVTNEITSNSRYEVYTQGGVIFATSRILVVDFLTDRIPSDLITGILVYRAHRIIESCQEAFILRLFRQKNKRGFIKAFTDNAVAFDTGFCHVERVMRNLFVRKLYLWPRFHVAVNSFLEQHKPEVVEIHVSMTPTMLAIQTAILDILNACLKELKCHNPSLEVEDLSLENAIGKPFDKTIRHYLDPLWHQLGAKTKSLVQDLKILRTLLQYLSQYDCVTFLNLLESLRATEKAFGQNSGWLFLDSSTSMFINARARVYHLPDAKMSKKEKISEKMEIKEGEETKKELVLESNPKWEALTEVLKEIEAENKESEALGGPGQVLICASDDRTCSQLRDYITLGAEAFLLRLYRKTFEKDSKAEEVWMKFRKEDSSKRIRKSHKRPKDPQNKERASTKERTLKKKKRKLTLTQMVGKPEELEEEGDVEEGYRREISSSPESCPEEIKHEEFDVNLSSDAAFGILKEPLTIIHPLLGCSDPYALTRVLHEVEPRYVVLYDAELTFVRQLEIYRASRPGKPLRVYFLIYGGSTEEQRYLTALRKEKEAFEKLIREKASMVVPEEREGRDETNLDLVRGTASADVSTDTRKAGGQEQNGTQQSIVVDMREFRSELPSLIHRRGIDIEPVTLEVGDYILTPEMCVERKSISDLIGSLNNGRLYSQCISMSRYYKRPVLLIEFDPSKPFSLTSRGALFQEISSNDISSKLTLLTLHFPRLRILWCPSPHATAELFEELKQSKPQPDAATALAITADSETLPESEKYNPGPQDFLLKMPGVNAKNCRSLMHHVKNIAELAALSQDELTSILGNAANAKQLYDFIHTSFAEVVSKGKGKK
In words: Steady-state intrinsic tryptophan fluorescence quenching binding assay. Conditions: 2 μM compound; excitation 295 nm. As to the method:
Steady-state fluorescence spectra were measured at room temperature on a Perkin-Elmer LS-55 spectrofluorometer (Freemont, Calif.) with 5 nm spectral resolution for excitation and emission using 30-80 nM solution of purified recombinant ERCC1-XPF protein complex. […] In studying the effects of inhibitors on protein fluorescence intensities, additions to protein samples were made from inhibitors stock solutions, keeping the protein dilution below 3%.

Data set [1] in a line: Microsomal stability in vitro (human liver microsomes).
The next data set deals with HCT116 cells. Nature of the data set: Cellular repair of UV-induced cyclobutane pyrimidine dimers (immunofluorescence). In kind it is cell-based, human.
Data set [2] can be described thus: ADME screening: cell permeability and efflux ratio. Particulars: Table 8.
Data set [3] has as its target T2, truncated ERCC1 (dERCC1) and XPF (dXPF) dimer (Homo sapiens, UniProt Q92889).
T2 construct: XPF (dXPF, codons 667-916); made in house
T2 sequence (Q92889 667-916): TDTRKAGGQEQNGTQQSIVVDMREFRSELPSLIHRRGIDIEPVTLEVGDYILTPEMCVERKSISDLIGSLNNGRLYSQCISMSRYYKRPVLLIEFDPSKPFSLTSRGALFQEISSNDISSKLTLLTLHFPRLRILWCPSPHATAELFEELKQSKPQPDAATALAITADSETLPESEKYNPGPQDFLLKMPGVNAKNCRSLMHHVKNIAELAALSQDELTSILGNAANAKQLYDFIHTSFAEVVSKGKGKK
In words: Micro Scale Thermophoresis of truncated ERCC1-XPF. Conditions: truncated dimer compared to individual peptides. It counts as binding. The text has this: MST allows for the detection of interactions and changes in the molecular properties of biomolecules at low nanomolar concentrations. We synthesized two human recombinant truncated forms of ERCC1 (dERCC1, codons 96-297) and XPF (dXPF, codons 667-916) for this study because these peptides contain the subunit interaction domains that the inhibitor was designed to disrupt.

Data set [4] is described as follows: ADME screening: solubility. In kind it is physicochemical. Particulars: Table 8.

As to `COc1ccc2nc3cc(Cl)ccc3c(Nc3ccc(O)c(CN4CCN(CCN(C)C)CC4)c3)c2c1` [Compound A4, 4-((6-Chloro-2-methoxyacridin-9-yl)amino)-2-((4-(2-(dimethylamino)ethyl)piperazin-1-yl)methyl) phenol], in “ADME screening: LogD”, the “LogD (rating)” value is “Good” and the log distribution coefficient (logD) is 2.86. For the same compound, the “quenching of protein fluorescence at 330 nm” value at ERCC1-XPF complex was roughly 23±2%. Besides, the “metabolism on exposure to human liver microsomes (in words)” value in data set [1] is reported as “metabolism in the midrange”. Also, the “Microsomal stability in vitro CLint (in words)” value in data set [1] (Table 8) was “Low”. Besides, in the data set with HCT116 cells (8 J/m^2 UV-C, up to 24 h post-irradiation), the “inhibition of cellular removal of CPDs / thymidine dimers (in words)” value is reported as “significantly different; also recorded: significant inhibition of removal of CPDs”. For the same compound, the “CPDs removed over 24 hours after UV exposure” value in the data set with HCT116 cells (8 J/m^2 UV, control approximately 80%) is “approximately 60%”. For the same compound, the “Cell permeability (Mean recovery %) (in words)” value in data set [2] is recorded as “Low”. The “change in thermophoresis properties (in words)” value in data set [3] is on record as “induced a larger change in the thermophoresis properties of the truncated dimer”. For the same compound, the “Solubility (in words)” value in data set [4] is “Poor”.
